# Measurements: PubChem BioAssay AID330 (DTP/NCI, 2004)
# Where “and” joins values, the source holds several entries; their conditions need not be identical. Equal values may be shown once. Inconclusive results and toxic doses are left out.
# Test system: P388 leukemia ip, CD2F1 mice, survival T/C
# Test: NCI In Vivo Anticancer Drug Screen. Data for tumor model P388 Leukemia (intraperitoneal) in CD2F1 (CDF1) mice
# Conditions: endpoint: median survival time, higher = longer survival
# Summary of the method: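 Mice carrying the transplanted tumor received test compound or vehicle. Survival was recorded in each group, and the value is the treated-group measurement divided by that of the vehicle-treated control group.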
# [1] = dose: 50.0 mg/kg/injection, schedule: Q01DX005 (ip), vehicle: saline with Tween-80
# [2] = dose: 100.0 mg/kg/injection, schedule: Q01DX005 (ip), vehicle: saline with Tween-80
# [3] = dose: 200.0 mg/kg/injection, schedule: Q01DX005 (ip), vehicle: saline with Tween-80
# [4] = dose: 50.0 mg/kg/injection, schedule: Q01DX005 (ip), vehicle: Klucel (hydroxypropylcellulose) (HPC)
# [5] = dose: 100.0 mg/kg/injection, schedule: Q01DX005 (ip), vehicle: Klucel (hydroxypropylcellulose) (HPC)
smiles,measurement,setting,value
C=C(CBr)C(=O)OCC,T/C,"dose: 7.5 mg/kg/injection, schedule: Q01DX005 (ip), vehicle: saline with Tween-80",103 % of control
same,T/C,"dose: 15.0 mg/kg/injection, schedule: Q01DX005 (ip), vehicle: saline with Tween-80",88 % of control
same,T/C,"dose: 30.0 mg/kg/injection, schedule: Q01DX005 (ip), vehicle: saline with Tween-80",103 % of control
Cn1c(=O)[nH]c2c(c1=O)CCCN2,T/C,"dose: 100.0 mg/kg/injection, schedule: Q04DX002 (ip), vehicle: Klucel (hydroxypropylcellulose) (HPC)",104 % of control
same,T/C,"dose: 200.0 mg/kg/injection, schedule: Q04DX002 (ip), vehicle: Klucel (hydroxypropylcellulose) (HPC)",98 % of control
same,T/C,"dose: 400.0 mg/kg/injection, schedule: Q04DX002 (ip), vehicle: Klucel (hydroxypropylcellulose) (HPC)",98 % of control
Nc1ncnc2c1C=C(B(O)O)B(O)N2,T/C,"dose: 6.25 mg/kg/injection, schedule: Q01DX009 (ip), vehicle: Klucel (hydroxypropylcellulose) (HPC)",97 % of control
same,T/C,"dose: 12.5 mg/kg/injection, schedule: Q01DX009 (ip), vehicle: Klucel (hydroxypropylcellulose) (HPC)",99 % of control
same,T/C,"dose: 25.0 mg/kg/injection, schedule: Q01DX009 (ip), vehicle: Klucel (hydroxypropylcellulose) (HPC)",104 % of control
CC1(C)CCC23CCC4(C)C(CCC5C6(C)CCC(O)C(C)(C)C6CCC54C)C2C1OC3 (stereo unspecified),T/C,"dose: 50.0 mg/kg/injection, schedule: Q01DX009 (ip), vehicle: Klucel (hydroxypropylcellulose) (HPC)",87 % of control
same,T/C,"dose: 100.0 mg/kg/injection, schedule: Q01DX009 (ip), vehicle: Klucel (hydroxypropylcellulose) (HPC)",87 % of control
same,T/C,"dose: 200.0 mg/kg/injection, schedule: Q01DX009 (ip), vehicle: Klucel (hydroxypropylcellulose) (HPC)",89 % of control
Clc1ccc(C2=NON(c3ccccn3)C3C=CC=CN23)cc1 (stereo unspecified),T/C,[1],97 % of control
same,T/C,[2],93 % of control
same,T/C,[3],93 % of control
C[As](C)SCCO,T/C,"dose: 12.5 mg/kg/injection, schedule: Q01DX005 (ip), vehicle: saline with Tween-80",110 % of control
same,T/C,"dose: 25.0 mg/kg/injection, schedule: Q01DX005 (ip), vehicle: saline with Tween-80",115 % of control
same,T/C,[1],117 % of control
same,T/C,"dose: 50.0 mg/kg/injection, schedule: Q04DX002 (ip), vehicle: saline with Tween-80",109 % of control
CCCc1nnc2n1NC1(CS2)Nc2ccccc2N1,T/C,"dose: 100.0 mg/kg/injection, schedule: Q01DX001 (ip), vehicle: saline with Tween-80",98 % of control
same,T/C,"dose: 200.0 mg/kg/injection, schedule: Q01DX001 (ip), vehicle: saline with Tween-80",97 % of control
same,T/C,"dose: 400.0 mg/kg/injection, schedule: Q01DX001 (ip), vehicle: saline with Tween-80",95 % of control
O=C1c2ccccc2C(=O)N1CN1C(=O)c2ccccc2S1(=O)=O,T/C,[4],93 % of control
same,T/C,[5],98 % of control
CCOC(=O)/C(Cl)=N/Nc1ccccc1,T/C,[1],97 % of control
same,T/C,[2],111 % of control
NC(=O)CC(N)CO (stereo unspecified),T/C,"dose: 50.0 mg/kg/injection, schedule: Q01DX009 (ip), vehicle: saline",100 % of control
same,T/C,"dose: 100.0 mg/kg/injection, schedule: Q01DX009 (ip), vehicle: saline",100 % of control
same,T/C,"dose: 200.0 mg/kg/injection, schedule: Q01DX009 (ip), vehicle: saline",103 % of control
same,T/C,"dose: 400.0 mg/kg/injection, schedule: Q01DX009 (ip), vehicle: saline",101 % of control
CC[n+]1ccc(Nc2ccc(NC(=O)c3ccc(Nc4cc[n+](CC)c5ccc([N+](=O)[O-])cc45)cc3)cc2)cc1,T/C,"dose: 11.0 mg/kg/injection, schedule: Q01DX009 (ip), vehicle: Klucel (hydroxypropylcellulose) (HPC)",162 % of control and 200 % of control
same,T/C,"dose: 16.0 mg/kg/injection, schedule: Q01DX009 (ip), vehicle: Klucel (hydroxypropylcellulose) (HPC)",215 % of control
same,T/C,"dose: 16.5 mg/kg/injection, schedule: Q01DX009 (ip), vehicle: Klucel (hydroxypropylcellulose) (HPC)",226 % of control
same,T/C,"dose: 22.0 mg/kg/injection, schedule: Q04DX003 (ip), vehicle: saline",175 % of control
same,T/C,"dose: 24.0 mg/kg/injection, schedule: Q01DX009 (ip), vehicle: Klucel (hydroxypropylcellulose) (HPC)",200 % of control
same,T/C,"dose: 25.0 mg/kg/injection, schedule: Q04DX003 (ip), vehicle: saline",154 % of control
same,T/C,"dose: 33.0 mg/kg/injection, schedule: Q04DX003 (ip), vehicle: saline",175 % of control
same,T/C,"dose: 50.0 mg/kg/injection, schedule: Q04DX003 (ip), vehicle: saline",180 % of control
CCCCCCCCCCCCCC(CCCC)CCCCCCCC (stereo unspecified),T/C,"dose: 37.5 mg/kg/injection, schedule: Q01DX001 (ip), vehicle: saline sonified",104 % of control
same,T/C,"dose: 75.0 mg/kg/injection, schedule: Q01DX001 (ip), vehicle: saline sonified",100 % of control
same,T/C,"dose: 150.0 mg/kg/injection, schedule: Q01DX001 (ip), vehicle: saline sonified",100 % of control
CC(C)CCOCCOCCCN1C(=O)C2C3C=CC(C3)C2C1=O (stereo unspecified),T/C,[4],99 % of control
same,T/C,[5],100 % of control
O=C(O)c1c2cc(Br)ccc2nc2[nH]c(=O)[nH]c(=O)c12,T/C,"dose: 50.0 mg/kg/injection, schedule: Q01DX005 (ip), vehicle: Klucel + Tween-80",104 % of control
same,T/C,"dose: 100.0 mg/kg/injection, schedule: Q01DX005 (ip), vehicle: Klucel + Tween-80",112 % of control
same,T/C,"dose: 200.0 mg/kg/injection, schedule: Q01DX005 (ip), vehicle: Klucel + Tween-80",111 % of control
COc1cccc2c1C(=O)c1c(O)c3c(c(O)c1C2=O)CC(O)(C(C)=O)CC3OC1CC(NCC2(O)OCC(O)C(OC3OC(CO)C(O)C(O)C3O)C2O)C(O)C(C)O1 (stereo unspecified),T/C,"dose: 1.56 mg/kg/injection, schedule: Q04DX003 (ip), vehicle: water",100 % of control
same,T/C,"dose: 3.12 mg/kg/injection, schedule: Q04DX003 (ip), vehicle: water",98 % of control and 99 % of control
same,T/C,"dose: 3.13 mg/kg/injection, schedule: Q04DX003 (ip), vehicle: water",95 % of control
same,T/C,"dose: 6.25 mg/kg/injection, schedule: Q04DX003 (ip), vehicle: water",99 % of control and 102 % of control and 103 % of control
same,T/C,"dose: 12.5 mg/kg/injection, schedule: Q04DX003 (ip), vehicle: water",100 % of control
same,T/C,"dose: 25.0 mg/kg/injection, schedule: Q04DX003 (ip), vehicle: water",105 % of control and 108 % of control and 119 % of control
same,T/C,"dose: 50.0 mg/kg/injection, schedule: Q04DX003 (ip), vehicle: water",119 % of control
O=C1C(C2=CCCCC2)CCCC1C1=CCCCC1 (stereo unspecified),T/C,"dose: 50.0 mg/kg/injection, schedule: Q01DX009 (ip), vehicle: saline with Tween-80",89 % of control
same,T/C,"dose: 100.0 mg/kg/injection, schedule: Q01DX009 (ip), vehicle: saline with Tween-80",91 % of control
same,T/C,"dose: 200.0 mg/kg/injection, schedule: Q01DX009 (ip), vehicle: saline with Tween-80",104 % of control
COc1ccc2c(=O)c(Cc3ccccc3)coc2c1,T/C,"dose: 60.0 mg/kg/injection, schedule: Q01DX005 (ip), vehicle: saline with Tween-80",100 % of control
same,T/C,"dose: 120.0 mg/kg/injection, schedule: Q01DX005 (ip), vehicle: saline with Tween-80",97 % of control
same,T/C,"dose: 240.0 mg/kg/injection, schedule: Q01DX005 (ip), vehicle: saline with Tween-80",100 % of control
Cc1ccc(S(=O)(=O)NC(CN(CC(=O)O)N=O)C(=O)O)cc1 (stereo unspecified),T/C,[4],97 % of control
same,T/C,[5],96 % of control
same,T/C,"dose: 200.0 mg/kg/injection, schedule: Q01DX005 (ip), vehicle: Klucel (hydroxypropylcellulose) (HPC)",98 % of control
CC1=CC23C(=O)[C@@H](C=C(COC(=O)c4ccccc4)[C@@H](O)[C@]2(O)[C@H]1OC(=O)c1ccccc1)[C@H]1[C@@H](C[C@H]3C)C1(C)C,T/C,"dose: 12.5 micrograms/kg/injection, schedule: Q01DX009 (ip), vehicle: saline with Tween-80",113 % of control
same,T/C,"dose: 25.0 micrograms/kg/injection, schedule: Q01DX009 (ip), vehicle: saline with Tween-80",102 % of control
same,T/C,"dose: 50.0 micrograms/kg/injection, schedule: Q01DX009 (ip), vehicle: saline with Tween-80",106 % of control
same,T/C,"dose: 100.0 micrograms/kg/injection, schedule: Q01DX009 (ip), vehicle: saline with Tween-80",119 % of control
same,T/C,"dose: 200.0 micrograms/kg/injection, schedule: Q01DX009 (ip), vehicle: saline with Tween-80",113 % of control
same,T/C,"dose: 281.0 micrograms/kg/injection, schedule: Q01DX009 (ip), vehicle: saline + alcohol",108 % of control
same,T/C,"dose: 468.0 micrograms/kg/injection, schedule: Q01DX009 (ip), vehicle: saline + alcohol",89 % of control
same,T/C,"dose: 780.0 micrograms/kg/injection, schedule: Q01DX009 (ip), vehicle: saline + alcohol",89 % of control
CC(C)C(NC(=O)OCc1ccccc1)C(=O)NC(Cc1c[nH]c2ccccc12)C(=O)O (stereo unspecified),T/C,[1],99 % of control
same,T/C,[2],99 % of control
same,T/C,[3],95 % of control
CCn1c2ccccc2c2cc(NC(=S)NC(=O)c3ccccc3)ccc21,T/C,[1],87 % of control
same,T/C,[2],86 % of control
same,T/C,[3],87 % of control
